Data from patent publication US20160223527A1, “An Immunological Assay To Detect And Quantify Acetylamantadine” (BIOMARK TECHNOLOGIES INC, priority 2013, published 2016).

Legend:
[1] = target: serum of a rabbit immunized repeatedly against acetylamantadine; assay: Competitive ELISA with serum of a rabbit immunized repeatedly against acetylamantadine; type: binding; settings: dilution of serum; FIG. 4
Procedure: A New Zealand white rabbit was immunized intramuscularly with 250 μg of the acetylamantadine-ovalbumin conjugate emulsified in complete Freund's adjuvant. The rabbit was boosted multiple times with acetylamantadine-ovalbumin conjugate, twice with 100 μg of acetylamantadine-conjugate keyhole-limpet hemocyanin and once with 4 pg of avidin coupled with an excess of biotinylated acetylamantadine with alum as an adjuvant. The rabbit was boosted with 100 μg of the acetylamantadine-ovalbumin conjugate 14 days before the rabbit was euthanized and bled out.
The rabbit blood was allowed to clot and the sera were collected. […]
Enzyme-linked immunosorbent assay (ELISA) plates were coated with the biotin-binding protein streptavidin at 2 μg/mL and blocked with skim milk. […] The soluble acetylamantadine or the amatidine was titrated in a separate 96-well plate and incubated for an hour with a small, previously determined concentration of anti-acetylamantadine affinity-purified antibodies absorbed with amantadine that gives a clear signal in the ELISA plates coated with acetylamantadine. […]
The ELISA was incubated for two hours and then the ELISA was developed by adding goat antibodies against rabbit IgG conjugated with alakine phosphatase. The substrate was added and the ELISA developed by standard methods and the optical densities were assayed by an ELISA reader and are shown in FIG. 1. […]

[2] = target: anti-acetylamantadine affinity-purified antibodies absorbed with amantadine; assay: Competitive ELISA with affinity-purified antibodies against acetylamantadine absorbed with amantadine; type: binding, rabbit; settings: soluble competitor incubated one hour with antibodies; plates coated with streptavidin and biotinylated acetylamantadine 2 ng/mL; FIG. 2
Procedure: The affinity-purified antibodies against acetylamantadine were flowed over a column of cyanogen-bromide coupled agarose beads conjugated with amantadine and the peak of IgG was taken.
Enzyme-linked immunosorbent assay (ELISA) plates were coated with the biotin-binding protein streptavidin at 2 μg/mL and blocked with skim milk. The ELISA plates were then washed with phosphate-buffered saline with an automated washer. Biotinylated acetylamantadine at 2 ng/mL was added to the streptavidin-coated ELISA plates so that acetylamantadine was bound to the streptavidin. The ELISA plates were then washed to remove the free biotinylated acetylamantadine. The soluble acetylamantadine or the amatidine was titrated in a separate 96-well plate and incubated for an hour with a small, previously determined concentration of anti-acetylamantadine affinity-purified antibodies absorbed with amantadine that gives a clear signal in the ELISA plates coated with acetylamantadine. […]
The ELISA was incubated for two hours and then the ELISA was developed by adding goat antibodies against rabbit IgG conjugated with alakine phosphatase. The substrate was added and the ELISA developed by standard methods and the optical densities were assayed by an ELISA reader and are shown in FIG. 1. […] If one makes quadruplicate assays of samples of urine, one can accurately quantify acetylamantadine in the assay. […]

[3] = target: affinity-purified antibodies against acetylamantadine; assay: Competitive ELISA with affinity-purified antibodies against acetylamantadine, not absorbed with amantadine; type: binding, rabbit; settings: FIG. 3
serum at 1:200 dilution = assay: Acetylamantadine competitive ELISA using serum at 1:200 dilution (FIG. 5); type: binding, rabbit; settings: serum 1:200; coating 2 ug/ml streptavidin and 6 ng/ml biotinylated acetylamantadine; tested 0.025 to 250 ng/ml
Procedure: It will accordingly be understood by a person skilled in the art that the immunological assay disclosed herein may be used to detect or quantify acetylamantadine in a patient who has taken a small dose of amantadine. This is shown in FIG. 5 which illustrates the results of an acetylamandine competitive ELISA with signal reading against acetylamantadine competitive concentration. The ELISA plate coating was 2 ug/ml streptavidin and 6 ng/ml biotinylated acetylamantadine. The competition ELISA using serum at 1:200 dilution against acetylamantadine ranging from 0.025 ng/ml to 250 ng/ml. Complete inhibition inhibition occurs near 100 ng/ml of soluble acetylamantadine. The detection limit (sensitivity) is near 0.5 ng/ml to 1.0 ng/ml The quantification of acetylamantadine can be used to quantify SSAT activity and elevated SSAT activity is an indication of diseases including, but not limited, to inflammations and cancers.

Row | SMILES | concentration giving significant inhibition (50%) of the binding in the ELISA [1] | concentration giving significant inhibition (50%) of the binding in the ELISA [2] | concentration giving significant inhibition (50%) of the binding in the ELISA [3] | concentration at which complete inhibition occurs (serum at 1:200 dilution)
1 | NC12CC3CC(CC(C3)C1)C2 [amantadine] | 100 µg/mL | 40 µg/mL | 100 µg/mL | 
2 | CC(=O)NC12CC3CC(CC(C3)C1)C2 [acetylamantadine] | ~0.0003 µg/mL | ~0.0004 µg/mL | ~0.0013 µg/mL | ~100 ng/mL
